Here are results for 2 substances from patent publication US8940310B2, “Methods of treatment using TLR7 and/or TLR9 inhibitors” (Dynavax Technologies Corporation, priority 2010, dated 2015).

Data set [1] addresses T1, TLR7 (Homo sapiens, UniProt Q9NYK1).
T1 construct: endogenous in cells; host or cells: primary human plasmacytoid dendritic cells from blood donors
T1 sequence (Q9NYK1 27-1049): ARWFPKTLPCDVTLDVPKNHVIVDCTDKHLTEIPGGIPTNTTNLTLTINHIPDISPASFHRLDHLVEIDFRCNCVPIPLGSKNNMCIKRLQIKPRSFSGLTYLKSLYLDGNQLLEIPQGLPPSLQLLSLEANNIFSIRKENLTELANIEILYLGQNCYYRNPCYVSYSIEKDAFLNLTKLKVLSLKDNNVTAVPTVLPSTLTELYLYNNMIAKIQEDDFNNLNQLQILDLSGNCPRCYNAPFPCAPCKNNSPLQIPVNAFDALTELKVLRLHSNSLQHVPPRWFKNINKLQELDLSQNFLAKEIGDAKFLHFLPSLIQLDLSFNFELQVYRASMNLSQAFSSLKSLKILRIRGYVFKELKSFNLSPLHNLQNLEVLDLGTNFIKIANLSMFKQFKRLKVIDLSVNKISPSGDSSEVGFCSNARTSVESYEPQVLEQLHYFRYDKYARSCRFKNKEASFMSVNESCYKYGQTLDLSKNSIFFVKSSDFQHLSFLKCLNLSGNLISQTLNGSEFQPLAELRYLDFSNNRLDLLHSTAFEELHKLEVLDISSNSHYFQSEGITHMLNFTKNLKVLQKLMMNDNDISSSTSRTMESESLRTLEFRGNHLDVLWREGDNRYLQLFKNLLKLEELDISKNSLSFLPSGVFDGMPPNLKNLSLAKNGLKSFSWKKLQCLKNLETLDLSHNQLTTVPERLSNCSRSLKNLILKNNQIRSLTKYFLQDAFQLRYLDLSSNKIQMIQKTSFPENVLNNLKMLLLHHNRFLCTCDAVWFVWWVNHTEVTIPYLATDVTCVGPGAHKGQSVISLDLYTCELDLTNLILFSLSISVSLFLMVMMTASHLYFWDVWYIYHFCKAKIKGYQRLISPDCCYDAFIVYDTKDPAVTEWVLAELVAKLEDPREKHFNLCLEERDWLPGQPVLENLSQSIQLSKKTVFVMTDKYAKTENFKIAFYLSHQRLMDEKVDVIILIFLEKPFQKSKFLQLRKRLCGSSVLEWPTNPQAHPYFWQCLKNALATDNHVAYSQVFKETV
The data set is classed as cell-based.

Data set [2] concerns the target T2, TLR9 (Mus musculus, UniProt Q9EQU3).
T2 construct: endogenous in cells; host or cells: 129 mice, whole animal (serum IFN-alpha and IL-6)
T2 sequence (Q9EQU3 26-1032): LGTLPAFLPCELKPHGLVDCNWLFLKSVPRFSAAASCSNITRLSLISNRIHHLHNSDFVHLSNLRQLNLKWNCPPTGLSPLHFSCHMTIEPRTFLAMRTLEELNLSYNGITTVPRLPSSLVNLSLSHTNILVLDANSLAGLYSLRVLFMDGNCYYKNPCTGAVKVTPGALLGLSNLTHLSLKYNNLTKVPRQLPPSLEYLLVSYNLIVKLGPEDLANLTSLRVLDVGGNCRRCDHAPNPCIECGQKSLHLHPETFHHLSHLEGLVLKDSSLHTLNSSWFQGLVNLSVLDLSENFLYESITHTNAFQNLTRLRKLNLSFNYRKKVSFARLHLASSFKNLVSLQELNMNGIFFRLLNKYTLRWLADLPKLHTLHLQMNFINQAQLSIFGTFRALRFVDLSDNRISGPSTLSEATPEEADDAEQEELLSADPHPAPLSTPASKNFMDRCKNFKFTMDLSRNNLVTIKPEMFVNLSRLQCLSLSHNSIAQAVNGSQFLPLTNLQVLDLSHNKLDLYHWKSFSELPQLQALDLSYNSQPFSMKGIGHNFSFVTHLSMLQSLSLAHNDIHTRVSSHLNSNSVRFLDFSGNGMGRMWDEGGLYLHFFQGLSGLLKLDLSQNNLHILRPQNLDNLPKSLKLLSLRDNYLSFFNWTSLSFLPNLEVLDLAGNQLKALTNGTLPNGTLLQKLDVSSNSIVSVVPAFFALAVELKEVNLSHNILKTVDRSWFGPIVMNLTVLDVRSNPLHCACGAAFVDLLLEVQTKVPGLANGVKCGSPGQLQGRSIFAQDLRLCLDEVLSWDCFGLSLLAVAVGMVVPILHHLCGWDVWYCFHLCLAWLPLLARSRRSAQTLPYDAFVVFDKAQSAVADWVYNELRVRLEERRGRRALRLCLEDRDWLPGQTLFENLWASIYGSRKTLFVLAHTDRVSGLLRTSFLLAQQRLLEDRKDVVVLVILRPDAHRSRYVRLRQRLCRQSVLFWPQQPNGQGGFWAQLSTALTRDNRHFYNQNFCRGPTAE
In words: CpG-C ISS-induced serum cytokines in 129 mice. The data set is classed as in vivo. As to conditions: CpG-C ISS with IRS, serum at 6 hr, listed as IRS. How it is done:
129 mice were either left untreated or treated with CpG-C ISS (50 μg/mice) alone or with IRS (50 μg/mice) and serum was collected 6 hr later. IFN-α and IL-6 was evaluated by ELISA. n=6 mice per group±standard error of the mean.

Entries after “also recorded” stand apart in the source; their conditions may differ. [I] = hypoxanthine (inosine)

The term IC50 denotes the concentration that gives 50% inhibition. The IC90 is the point of the concentration-response curve where the effect stands at 90%. Regarding “5′-TGC TCC TGG AGI GGT TGT-3′ (DNA TGCTCCTGGAGNGGTTGT; DNA, [I] at 12, backbone and methylation of C not given here) [SEQ ID NO:73]”, in data set [1] (read-out: IC50, IFN-α, FLU), the IC50 came out at 13 nM. In addition, the IC90 in data set [1] (read-out: IC90, IFN-α, FLU) is 101 nM. As for “5′-TGCTCCTGGAGGGGTTGT-3′ (DNA, backbone not given here) [SEQ ID NO:42]”, the “CpG-ISS-induced activation, serum IFN-α and IL-6” value in data set [2] was “prevented CpG-ISS-induced activation; also recorded: significantly reduced CpG-C ISS-mediated induction of cytokines”.
